In PubChem BioAssay (NCI):
Values joined by “and” are separate entries in the source; they are usually repeats but may differ in a detail not shown here. Equal values may be shown once.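 A five-concentration, 48-hour dose response in 96-well plates underlies each endpoint, interpolated linearly between surrounding concentrations. GI50 is the concentration that inhibits growth by half. Definition used: TGI = concentration required for complete inhibition of growth.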

Experiments:
Experiment in all cases: DTP human tumour cell line panel, 48 h
UACC-62 melanoma = system: UACC-62 melanoma
SF-268 CNS = system: SF-268 CNS
MDA-MB-231 breast = system: MDA-MB-231 breast
MOLT-4 leukemia = system: MOLT-4 leukemia
IGROV1 ovarian = system: IGROV1 ovarian
PC-3 prostate = system: PC-3 prostate
U251 CNS = system: U251 CNS
RXF 393 renal = system: RXF 393 renal
MDA-MB-435 = system: MDA-MB-435
HCC-2998 colon = system: HCC-2998 colon

SMILES | GI50 (UACC-62 melanoma) | TGI (UACC-62 melanoma) | GI50 (SF-268 CNS) | TGI (SF-268 CNS) | GI50 (MDA-MB-231 breast) | TGI (MDA-MB-231 breast) | GI50 (MOLT-4 leukemia) | TGI (MOLT-4 leukemia) | GI50 (IGROV1 ovarian) | TGI (IGROV1 ovarian) | GI50 (PC-3 prostate) | TGI (PC-3 prostate) | GI50 (U251 CNS) | TGI (U251 CNS) | GI50 (RXF 393 renal) | TGI (RXF 393 renal) | GI50 (MDA-MB-435) | TGI (MDA-MB-435) | GI50 (HCC-2998 colon) | TGI (HCC-2998 colon)
O=C(Nc1cc(-c2cccnc2)nc(NCCCN2CCOCC2)n1)c1cc(Br)cc(C(F)(F)F)c1 | 1.94 µM | 4.38 µM | 2.63 µM | 10.4 µM | 1.79 µM | 3.93 µM | 3.63 µM | 13.1 µM | 4.67 µM | 19.5 µM | 4.03 µM | 15.7 µM | 2.05 µM | 4.3 µM | 1.8 µM | 3.61 µM | 1.66 µM | 3.15 µM | 1.77 µM | 3.49 µM
OC(COc1cccc2ccccc12)CN1CCN(c2ccccc2Cl)CC1 (stereo not given) | 12.2 µM | 24.8 µM | 13.9 µM | 29.9 µM | 10.8 µM | 25.5 µM | 12.6 µM | 59.5 µM | 10 µM | 25.5 µM | 7.88 µM | 23.2 µM | 17.1 µM | 31.6 µM | 16.5 µM | 30.8 µM | 14.5 µM | 30.4 µM | 14.8 µM | 29.3 µM
CCOC(=O)Cc1csc(NC(=O)COC(=O)c2ccc(OC)cc2)n1 | > 100 µM | > 100 µM | 16.6 µM | 40.9 µM | > 78.3 µM | > 100 µM | – | > 35.6 µM | 2.99 µM | 8.77 µM | 26.5 µM | > 100 µM | 43.3 µM | > 100 µM | > 70.8 µM | > 100 µM | > 100 µM | > 100 µM | > 100 µM | > 100 µM
CC1(C)[C@@H](OC(N)=O)C=C[C@]2(C=O)[C@H]3CC[C@]4(C)[C@@H](c5ccc(=O)oc5)[C@@H](Cl)C[C@]4(O)C3=CC[C@@H]12 | 0.00491 µM | 0.0105 µM | 0.00301 µM | 0.00621 µM | 0.00899 µM | 0.0492 µM | < 0.0025 µM | 0.00724 µM | 0.00761 µM | 0.0244 µM | 0.00517 µM | 0.0148 µM | 0.00451 µM | 0.00854 µM | 0.00561 µM | 0.0157 µM | 0.006 µM | 0.0141 µM | 0.0081 µM | 0.0304 µM
O=C(NCCCCOCC#Cc1ccccc1C#CCS(=O)(=O)c1ccccc1)c1cc2ccccc2[nH]1 | 8.29 µM | 16.6 µM | 12.4 µM | > 43.1 µM | 9.59 µM | 27.4 µM | – | > 10.1 µM | 2.68 µM | 7.03 µM | 7.1 µM | 36.5 µM | 9.64 µM | 22 µM | 12.2 µM | 38.5 µM | 10.6 µM | 30.3 µM | 12 µM | 32.4 µM
Cn1ncc(-c2ccc3c(=O)[nH]nc(CN)c3c2)c1-c1c(F)cc2ccccc2c1C#N | 10.2 µM | 23.6 µM | 4.74 µM | 20.6 µM | 8.53 µM | 23.4 µM | 2.29 µM | 12.6 µM | 4.63 µM | 19.7 µM | 8.21 µM | 23.6 µM | 5.36 µM | 17.9 µM | 4.6 µM | 16.6 µM | 3.72 µM | 14.5 µM | 8.63 µM | 20.8 µM
C#CCN(Cc1nc2cc(C(F)(F)F)ccc2nc1-c1ccccc1)c1ccc(F)c(F)c1 | 44.5 µM | > 100 µM | 22.1 µM | > 100 µM | 21.9 µM | > 100 µM | 30.3 µM | > 100 µM | 68.1 µM | > 100 µM | 37.6 µM | > 100 µM | 66.5 µM | > 100 µM | 22.9 µM | 92.5 µM | 37.8 µM | > 100 µM | 44.8 µM | 96.9 µM
CC[C@H](NC(=O)[C@H](CS(=O)(=O)CC1CC1)N[C@@H](c1ccc(F)cc1)C(F)(F)F)C(=O)C(=O)NC1CC1 | > 100 µM | > 100 µM | > 100 µM | > 100 µM | 93.1 µM | > 100 µM | 32.8 µM | > 100 µM | > 100 µM | > 100 µM | > 100 µM | > 100 µM | > 100 µM | > 100 µM | > 100 µM | > 100 µM | > 100 µM | > 100 µM | > 100 µM | > 100 µM
Cc1c(C(=O)O[C@H]2[C@@H]3[C@H](C)CC[C@H]3[C@]3(C)O[C@@]2(C2CCCCC2)C[C@H]3OC(=O)CO)ccc2ccccc12 | 7.97 µM | 15.1 µM | 3.49 µM | 11.8 µM | 8 µM | 16.7 µM | 7.15 µM | 17.7 µM | 8.39 µM | 17.3 µM | 6.96 µM | 15.6 µM | 7.43 µM | 13.9 µM | 0.164 µM | 7.12 µM | 8.15 µM | 15.4 µM | 8.09 µM | 15.8 µM
N#Cc1c2c(c(-c3cccs3)n(C3OC(CO)C(O)C(O)C3O)c1=S)CCc1ccccc1-2 (stereo not given) | – | > 100 µM | > 100 µM | > 100 µM | 15.5 µM and 37.3 µM | > 100 µM | – | > 100 µM | – | > 100 µM | – | > 100 µM | – | > 100 µM | – | > 100 µM | – | > 100 µM | – | > 100 µM
CN1CCN(CCOc2ccc(-c3cnc4c(-c5ccc(F)cc5)cnn4c3)cc2)CC1 | 1.78 µM | 3.36 µM | 2.03 µM | 5.31 µM | 1.57 µM | 3.07 µM | 1.56 µM | 3.59 µM | 1.63 µM | 3.3 µM | 1.7 µM | 3.82 µM | 1.39 µM | 2.94 µM | 1.65 µM | 3.27 µM | 1.73 µM | 3.18 µM | 1.77 µM | 3.45 µM
N=C(N)SCCc1ccccn1 | – | > 100 µM | – | > 100 µM | – | > 100 µM | – | > 100 µM | – | > 100 µM | – | > 100 µM | – | > 100 µM | – | > 100 µM | – | > 100 µM | – | > 100 µM
CCCn1c(N)c(C(=O)CNc2ccc(I)cc2)c(=O)[nH]c1=O | 1.15 µM | > 100 µM | 4.55 µM | > 100 µM | 24.5 µM | > 100 µM | 0.422 µM | > 100 µM | 18 µM | > 100 µM | 5.44 µM | > 100 µM | 0.761 µM | > 48.9 µM | 21.5 µM | > 100 µM | 6.01 µM | > 100 µM | 4.23 µM | > 90.6 µM
COc1ccc(/C=N/N=C(\[O-])c2ccncc2)cc1F.COc1ccc(/C=N\N=C(/[O-])c2ccncc2)cc1F.[Cu+2] | 23.8 µM | 52.8 µM | 25.9 µM | 86.3 µM | 32.4 µM | > 100 µM | 26 µM | > 100 µM | 17.6 µM | 40.2 µM | 16.8 µM | 35.1 µM | 19.4 µM | 35.8 µM | 18.9 µM | 32.9 µM | 62.1 µM | > 100 µM | 32.9 µM | > 100 µM
COc1cc(-c2nn(-c3ccc(NC(=O)c4cc(Cl)cc(Cl)c4)cc3)cc2-c2ccncc2)ccc1Cl | 4.58 µM | > 100 µM | > 100 µM | > 100 µM | 9.93 µM | > 100 µM | 4.83 µM | > 100 µM | > 100 µM | > 100 µM | 42 µM | > 100 µM | 6.23 µM | > 100 µM | 2.14 µM | > 100 µM | > 100 µM | > 100 µM | 5.88 µM | > 100 µM
COc1ccc(NC(=O)/C=C(C)/C=C/C=C(C)\C=C\C2=C(C)CCCC2(C)C)cc1 | 24.6 µM | > 100 µM | > 100 µM | > 100 µM | 5.21 µM | 59 µM | 55.1 µM | > 100 µM | 54.3 µM | > 100 µM | 72.6 µM | > 100 µM | > 100 µM | > 100 µM | 25.5 µM | 76.1 µM | 48.2 µM | > 100 µM | > 100 µM | > 100 µM
O=C(c1ccccc1)C1C(C(=O)c2ccccc2)C(c2ccccc2)N(c2ccccc2)C1c1ccccc1 (stereo not given) | – | > 100 µM | – | > 100 µM | – | > 100 µM | – | > 100 µM | – | > 100 µM | – | > 100 µM | – | > 100 µM | – | > 100 µM | – | > 100 µM | – | > 100 µM
NS(=O)(=O)c1ccc(NC(=O)Nc2ccccc2F)cc1 | – | > 100 µM | – | > 100 µM | – | > 100 µM | – | > 100 µM | – | > 100 µM | – | > 100 µM | – | > 100 µM | – | > 100 µM | – | > 100 µM | – | > 100 µM
Oc1ccc(Cl)cc1-c1cc(-c2ccc(F)cc2)n[nH]1 | 2.42 µM | 9.5 µM | 2.66 µM | 11.4 µM | 1.19 µM | 4.35 µM | 2.8 µM | 41.4 µM | 1.23 µM | 8.44 µM | 1.96 µM | 8.81 µM | 2.1 µM | 5 µM | 2.83 µM | 7.82 µM | 2.53 µM | 10.7 µM | 2.08 µM | 5.95 µM
COc1cc([C@@H]2c3cc4c(cc3C(OC3O[C@@H]5COC(C)O[C@H]5[C@H](O)[C@H]3O)C3COC(=O)[C@@H]32)OCO4)cc(OC)c1O (stereo not given in full) | 0.868 µM | > 44.9 µM | 1.22 µM | 15.4 µM | 7.25 µM | > 40.4 µM | 0.0948 µM | 0.882 µM | 2.95 µM | > 50 µM | 5.59 µM | > 50 µM | 0.667 µM | 14.9 µM | 0.982 µM | 8.31 µM | 3.89 µM | > 50 µM | 1.91 µM | 11.2 µM
